{"source": "patent US20110065628A1", "about": "“Medication Combinations for the Treatment of Alcoholism and Drug Addiction” (UNIVERSITY OF VIRGINIA PATENT FOUNDATION, priority 2007, published 2011)", "key": {"[1]": {"test_system": "alcohol-preferring (P) rats", "experiment": "Combined topiramate and naltrexone on alcohol consumption", "type": "in vivo", "description": "FIG. 8 graphically illustrates the combined effect of topiramate and naltrexone on alcohol consumption in alcohol-preferring (P) rats. Rats received either vehicle, topiramate at 5 mg/kg, topiramate at 10 mg/kg, naltrexone at 1/mg/kg and topiramate at 5 mg/kg, naltrexone at 1/mg/kg and topiramate at 10 mg/kg, or naltrexone at 1 mg/kg. Each data point represents the mean (±SE) of 8 rats as a change from baseline.\nNo significant differences were observed following vehicle injection. Data are plotted as change from baseline consumption, and each data point represents a mean (±SE) of 8 rats."}, "[2]": {"test_system": "patients with alcohol and nicotine dependence", "experiment": "Open-label 8 week naltrexone study with coping skills therapy", "type": "in vivo, human", "settings": "naltrexone 50 mg/day, 8 weeks", "text": "In an open-label study, we evaluated the efficacy of naltrexone, an opioid antagonist, in the treatment of alcohol dependence. Since up to 92% of alcoholics are also co-dependent on nicotine, our cohort included dually dependent individuals. […] From a local newspaper advertisement, we enrolled 10 subjects (6 males and 4 females; aged 40±2.56 years) into the study. All patients met DSM III-R criteria for both alcohol and nicotine dependence. Patients were instructed that the goal of treatment was abstinence by the end of the study. Patients received naltrexone (50 mg/day) in unmarked capsules with a riboflavin tracer for an 8 week period. Weekly attendance included combined coping skills therapy for alcohol and nicotine dependence, nursing visits, and completion of rating scales. […] Drop-out rate at 30% was similar to that observed in medication trials for alcoholism. This study supports the clinical evidence that naltrexone is a useful adjunct to Cognitive Behavioral Therapy for the treatment of alcoholism. Naltrexone's effects on cigarette smoking appears small but may warrant further exploration."}, "[3]": {"test_system": "individuals in alcohol trials", "settings": "cited from earlier work"}, "[4]": {"test_system": "alcohol consumption (8% w/v) in rhesus monkeys", "experiment": "Naltrexone effect on alcohol drinking, fixed ratio schedule, 3 hour sessions", "type": "in vivo", "settings": "increasing doses of naltrexone 0.1, 0.3, 1.0, 3.0 g/kg; three non food deprived rhesus monkeys", "description": "FIG. 3 graphically illustrates the effects of Naltrexone on alcohol consumption in non-human primates (rhesus monkeys). Naltrexone was administered at 0.1 (∘), 0.3 ([…]), 1.0 (□) or 3.0 (▪) […]. The ordinate represents cumulative deliveries as percent change from baseline. The abscissa represents time in 10 minute blocks.\nDuring these 3 hour sessions, both water and alcohol were concurrently available."}, "[5]": {"test_system": "EOA and LOA alcoholics", "settings": "EOA compared with LOA; 1, 4, 16 μg/kg twice daily, particularly 4 μg/kg; cited from earlier work"}, "[6]": {"test_system": "alcohol-preferring (P) rats", "experiment": "24-hour-access two-bottle choice alcohol consumption, topiramate, ondansetron, naltrexone", "type": "in vivo", "description": "FIG. 10, comprising 5 panels—FIGS. 10A to 10E, graphically illustrates the combined effect of topiramate (10 mg/kg, IP), ondansetron (0.001 mg/kg, IP), and naltrexone (1 mg/kg, IP) on alcohol consumption in alcohol-preferring (P) rats. 10A—Topiramate alone; 10B—Ondansetron alone; 10C—Vehicle; 10D—Topiramate+Ondansetron; 10E—Topiramate+Ondansetron+Naltrexone. Data are plotted across seven consecutive sessions, which include a 3-day baseline period, the test session in which the ondansetron, topiramate, and naltrexone injection was administered, and the three sessions that followed the test session. Each data point represents a mean (±SE) of at least six rats. The ordinate represents ethanol intake in g/kg and the abscissa represents session number.\nThe effects of ondansetron, topiramate, and naltrexone, medications shown to be efficacious in treating alcohol-dependent humans, on measures of alcohol dependence were determined in animal models in order to determine whether these medications may produce additive effects when combined. The experiments examined their ability to modulate total consumption under a 24-hour-access two-bottle choice procedure wherein rats had unlimited access to alcohol solutions (10%) and water. […]"}, "[7]": {"test_system": "alcoholics (EOA and LOA)", "experiment": "11-week double-blind ondansetron trial with weekly Cognitive Behavioral Therapy", "type": "in vivo, human", "settings": "for Drinks/Day / Drinks/Drinking Day: at endpoint; for Drinks/Day: placebo 3.30; for Drinks/Drinking Day: placebo 6.90", "text": "It was hypothesized herein that the drinking outcomes of EOA, compared with LOA, would be more improved by the selective serotonin antagonist, ondansetron. EOA differ from LOA by having greater serotonergic abnormality, an earlier age of onset, and antisocial behaviors. Thus, EOA may be especially responsive to treatment with a selective serotonergic agent.\nThe design was as follows: 321 alcoholics (EOA=161; LOA=160; mean age 40.6 years; 70.5% male, and 78.6% white) received one lead in week of single-blind placebo followed by 11 weeks of double-blind outpatient treatment using a 2×4 factorial design which examined age of onset (EOA vs. LOA) and medication dose (placebo, or ondansetron 1, 4, or 16 μg/kg b.i.d) combined with weekly standardized group Cognitive Behavioral Therapy. Efficacy measures were: 1) Self reported drinking (Drinks/Day, Drinks/Drinking Day, Percent Days Abstinent, and Total Days Abstinent/study week), and 2) plasma Carbohydrate Deficient Transferrin level (CDT)."}, "[8]": {"test_system": "patients with alcoholism (DSM III-R)", "experiment": "12-week outpatient placebo-controlled ritanserin trial with Cognitive Behavioral Therapy", "type": "in vivo, human", "settings": "ritanserin 2.5 mg or 5 mg, 12 weeks", "description": "FIG. 5 graphically illustrates the effects of treatment with Ritanserin in conjunction with Cognitive Behavioral Therapy. The ordinate represents the mean number of drinks since the last visit and the abscissa indicates the time period of assessment in the study (in weeks). Subjects were treated with 2.5 mg Ritanserin ([…]), 5.0 mg Ritanserin ? or received placebo (▴).\nIn this study, we examined the efficacy of ritanserin on alcohol consumption in a 12-week, outpatient, placebo-controlled clinical trial. This study overlapped in time and recruitment effort with the ondansetron study described above. Therefore, our research group has the expertise to conduct multiple treatment studies simultaneously. Fifty-four patients from our center who met DSM III-R criteria for alcoholism participated and were randomized to receive placebo, 2.5 mg, or 5 mg of ritanserin. All patients received standardized manual driven Cognitive Behavioral Therapy for alcoholism. Cognitive Behavioral Therapy was conducted by counselors with extensive experience with behavioral treatments, and over 500 therapy hours were logged. […] There was no within time effect nor group interaction. Similarly, there was no difference in craving between the treatment groups."}, "[9]": {"test_system": "individuals who take topiramate", "settings": "cited from earlier work"}, "[10]": {"test_system": "alcohol-dependent men and women", "settings": "topiramate up to 300 mg per day, 12 weeks; cited from earlier work"}, "[11]": {"settings": "EOA, ondansetron 1 μg/kg b.i.d, p<0.05"}, "[12]": {"settings": "EOA, ondansetron 4 μg/kg b.i.d, p<0.05"}, "[13]": {"settings": "N=321, 88 received the 4 μg/kg dose"}}, "note": "Where a name gives a salt, the structure may show the parent alone.", "data": [{"compound": "O=C1CC[C@@]2(O)[C@H]3Cc4ccc(O)c5c4[C@@]2(CCN3CC2CC2)[C@H]1O5", "note": "[naltrexone, 17-(Cyclopropylmethyl)-4,5 a-epoxy-3,14-dihydroxymorphinan-6-one hydrochloride]", "values": [{"measurement": "alcohol consumption, change from baseline", "setting": "[1]; naltrexone alone, 1 mg/kg intraperitoneally", "value": "did not affect alcohol consumption on its own"}, {"measurement": "nicotine withdrawal symptoms", "setting": "[2]", "value": "No patient reported clinically significant nicotine withdrawal symptoms"}, {"measurement": "alcohol consumption", "setting": "[2]; before 3.29±2.16 drinks/day, p<0.05", "value": "2.16±1.88", "unit": "drinks/day"}, {"measurement": "smoking", "setting": "[2]; before 21.10±5.57 cigarettes/day", "value": "15.93±3.09", "unit": "cigarette/day"}, {"measurement": "rate of subject withdrawal due to naltrexone induced nausea", "setting": "[3]; Croop and Colleagues, 570 received naltrexone", "value": 15, "unit": "%"}, {"measurement": "individuals unable to tolerate naltrexone", "setting": "[3]; naltrexone dose of 50 mg/day", "value": "about 15%"}, {"measurement": "alcohol consumption", "setting": "[4]", "value": "dose-dependent decreases"}]}, {"compound": "Cc1nccn1CC1CCc2c(c3ccccc3n2C)C1=O", "note": "(stereo not shown) [ondansetron, 9-methyl-3-[(2-methyl-1H-imidazol-1-yl)methyl]-1,2,3,9-tetrahydrocarbazol-4-one]", "values": [{"measurement": "drinking", "setting": "[5]", "value": "significant reductions in drinking"}, {"measurement": "alcohol consumption", "setting": "[6]; ondansetron alone 0.001 mg/kg intraperitoneally (FIG. 10B)", "value": "did not affect alcohol consumption on its own"}, {"measurement": "Drinks/Day", "setting": "[7]; [11]", "value": 1.89}, {"measurement": "Drinks/Drinking Day", "setting": "[7]; [11]", "value": 4.75}, {"measurement": "mean log CDT ratio between endpoint and enrollment", "setting": "[7]; EOA, ondansetron 1 μg/kg b.i.d, placebo +0.11, p<0.05", "value": "−0.17"}, {"measurement": "Drinks/Day", "setting": "[7]; [12]", "value": 1.56}, {"measurement": "Drinks/Drinking Day", "setting": "[7]; [12]", "value": 4.28}, {"measurement": "Drinking outcomes in LOA", "setting": "[7]; LOA", "value": "not improved substantially"}, {"measurement": "nausea", "setting": "[7]; [13]", "value": "nausea was not reported"}, {"measurement": "side-effects vs. placebo", "setting": "[7]; [13]", "value": "no side-effect was reported more often than placebo"}, {"measurement": "Total Days Abstinent/study week", "setting": "[7]; ondansetron 4 μg/kg b.i.d, placebo 5.92, p<0.05", "value": 6.74}, {"measurement": "Percent Days Abstinent", "setting": "[7]; ondansetron 4 μg/kg b.i.d, placebo 50.20, p<0.05", "value": 70.10}]}, {"compound": "Cc1nc2sccn2c(=O)c1CCN1CCC(=C(c2ccc(F)cc2)c2ccc(F)cc2)CC1", "note": "[ritanserin]", "values": [{"measurement": "alcohol consumption", "setting": "[8]", "value": "no clinically significant effect"}, {"measurement": "craving", "setting": "[8]", "value": "no clinically significant effect"}]}, {"compound": "CC1(C)O[C@@H]2[C@@H](CO[C@@]3(COS(N)(=O)=O)OC(C)(C)O[C@@H]23)O1", "note": "[topiramate, 2,3:4,5-Bis-O-(1-methylethylidene)-beta-D-fructopyranose sulfamate]", "values": [{"measurement": "alcohol consumption, change from baseline", "setting": "[1]; topiramate alone, 10 mg/kg intraperitoneally, effect not yet significant", "value": "only modestly decreased alcohol consumption"}, {"measurement": "decrease in alcohol consumption from baseline", "setting": "[6]; topiramate alone 10 mg/kg intraperitoneally (FIG. 10A)", "value": "12%±8%"}, {"measurement": "cognitive impairment, reported rate", "setting": "[9]; general population", "value": 2.4, "unit": "%"}, {"measurement": "cognitive impairment, occurrence rate", "setting": "[9]; substance abuse field", "value": "about 18.7%"}, {"measurement": "craving vs. placebo", "setting": "[10]", "value": "significantly less craving"}, {"measurement": "days of abstinence vs. placebo", "setting": "[10]", "value": "significantly more days of abstinence"}, {"measurement": "drinks per day, drinking days, drinks per drinking day vs. placebo", "setting": "[10]", "value": "significantly fewer drinks per day, drinking days, and drinks per drinking day"}]}]}
